According to patent publication US7981939B2, “Application of 2-bromide-isovanillin for the manufacture of a medicament for anti-cancer or/and radiation/chemotherapy sensitization” (Institute of Radiation Medicine, Academy of Military …, priority 2005, dated 2011):

Assays:
[1] = test system: human cervical cancer cell line HeLa; assay: MTT assay, proliferation of HeLa cells; assay type: cell-based
Method: Human cervical cancer cell line HeLa, human liver cancer cell line HepG2/7221/7402, human ovarian cancer cell line HOC8/A2780, human glioma cell line BT325, lung cancer cell line A549, brain metastatic lung cancer cell line BT72 and normal human hepatic cell line LO2 were all grown in DMEM liquid medium supplemented with 10% newborn calf serum. Human leukemia cell line Jurkat was grown in 1640 medium supplemented with 10% newborn calf serum. The above cell lines were cultured in a CO2 incubator at 5% CO2 at 37° C.
By way of example, human cervical cancer cell line HeLa was used to study the effect of vanillin on the proliferation of cancer cells by MTT assay. Specifically, human cervical cancer cells HeLa were seeded into a 96-well plate at a density of 5×10^3 cells/well, and were divided into four groups. To each of the groups vanillin was added at a concentration of 0, 100, 250 or 500 μmol/L, respectively, and was allowed to grow for 4 days. Using the MTT assay, the optical density (OD) values at 490 nm were measured and recorded every day, wherein the OD value is indicative of the number of cells, i.e., the proliferation of cells.
By way of example, human cervical cancer cell line HeLa was used to study the effect of several vanillin derivatives for 72 hrs on the proliferation of cancer cells by MTT assay. Specifically, human cervical cancer cells HeLa were seeded into a 96-well plate at a density of 5×10^3 cells/well, and were divided into four groups. To each of the groups were added increasing concentrations (0, 10, 20, 30, 40 μmol/L) of vanillin derivatives ethyl vanillin (Code No. VAND3206), 4-methoxy vanillin (Code No. VAND3207), isovanillin (Code No. VAND3209) and 2-bromo-isovanillin (Code No. VAND3208), and the cells were cultured for 72 hrs. Using the MTT assay, the optical density (OD) values at 490 nm were measured and recorded every day, wherein the OD value is indicative of the number of cells, i.e., the proliferation of cells.
By way of example, human cervical cancer cell line HeLa was used to study the inhibitory effect of 2-bromo-isovanillin at different concentrations for different periods of time on the proliferation of cancer cells by MTT assay. Specifically, human cervical cancer cells HeLa were seeded into a 96-well plate at a density of 5×10^3 cells/well, and were divided into […]. To each of the groups 2-bromo-isovanillin was added at a concentration of 0, 10, 20, 30, 40 or 50 μmol/L, and was cultured for 14 days, respectively. Using the MTT assay, the optical density (OD) values at 490 nm were measured and recorded every day, wherein the OD value is indicative of the number of cells, i.e., the proliferation of cells.

[2] = test system: human liver cancer cell line HepG2; assay: Clonogenic assay, HepG2 compared with normal hepatic cells LO2; assay type: cell-based; conditions: 5-80 μmol/L, 24 hrs
Method: By way of example, human liver cancer cell line HepG2 and normal human hepatic cell line LO2 were used to study the inhibitory effect of 2-bromo-isovanillin on the growth of liver cancer cells and normal cells by clonogenic assay. Specifically, five groups were formed according to the drug concentration, and the liver cancer cells HepG2 and normal hepatic cells LO2 were respectively treated with 5, 10, 20, 40 and 80 μmol/L 2-bromo-isovanillin for 24 hrs. Then cell survival was measured by clonogenic assay (FIG. 8). In addition, the cell cycle profile and apoptotic effect were compared using flow cytometry.

Structure (SMILES): COc1ccc(C=O)c(Br)c1O [2-bromo-isovanillin, 2-bromo-3-hydroxy-4-methoxybenzaldehyde]
- effect on the proliferation of HeLa cells ([1]; 20 μmol/L): remarkable inhibitory effect
- effect on the proliferation of HeLa cells ([1]; 30 μmol/L or above for 4 days): completely lost their proliferative capabilities
- effect on the proliferation of HeLa cells ([1]; concentrations of less than 40 μmol/L, up to 72 hrs): significant inhibition
- killing effect on HepG2 compared with normal hepatic cells [2]: significantly higher
